The values below come from patent US10251889B2, “Substituted pyrazolo[1,5-a]pyrimidine compounds as Trk kinase inhibitors” (Array BioPharma, Inc., priority 2009, dated 2019).

Usually inhibition stands for the change of the read-out against control, counted positive when it falls.

For the assay, the target named is Jak2 (human Jak2 kinase domain, amino acids 808-1132) (Homo sapiens (Human), UniProt O60674). As to the kind of experiment: Jak2 inhibition assay (Omnia kinase assay). The assay is classed as biochemical. The note with it: read-out: Jak2 Enzyme (% inhibition at 1000 nM), Table 1; 1000 nM test compound.
Jak2 (human Jak2 kinase domain, amino acids 808-1132), sequence (O60674 808-1132): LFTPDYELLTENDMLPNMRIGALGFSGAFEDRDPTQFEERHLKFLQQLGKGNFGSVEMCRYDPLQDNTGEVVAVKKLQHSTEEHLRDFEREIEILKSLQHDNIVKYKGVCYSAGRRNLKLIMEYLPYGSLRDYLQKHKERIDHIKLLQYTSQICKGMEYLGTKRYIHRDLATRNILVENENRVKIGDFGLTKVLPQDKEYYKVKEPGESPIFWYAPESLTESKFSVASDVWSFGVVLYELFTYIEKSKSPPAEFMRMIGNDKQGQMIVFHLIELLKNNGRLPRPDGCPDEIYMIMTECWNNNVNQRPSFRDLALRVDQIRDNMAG
For the compound `COc1ncc(F)cc1[C@H]1CCCN1c1ccn2ncc(C(=O)NC3CCN(CCO)CC3)c2n1` [Example 159, (R)-5-(2-(5-fluoro-2-methoxypyridin-3-yl)pyrrolidin-1-yl)-N-(1-(2-hydroxyethyl)piperidin-4-yl)pyrazolo[1,5-a]pyrimidine-3-carboxamide], the inhibition at 1 µM came to 28.9%.
For the compound `COc1ncc(F)cc1[C@H]1CCCN1c1ccn2ncc(C(=O)NC(CO)CO)c2n1` [Example 160, (R)-N-(1,3-dihydroxypropan-2-yl)-5-(2-(5-fluoro-2-methoxypyridin-3-yl)pyrrolidin-1-y1)pyrazolo[1,5-a]pyrimidine-3-carboxamide], the inhibition at 1 µM stood at 8.5%.
Regarding `COc1ncc(F)cc1[C@H]1CCCN1c1ccn2ncc(C(=O)Nc3ccc(=O)[nH]c3)c2n1` [Example 161, (R)-5-(2-(5-fluoro-2-methoxypyridin-3-yl)pyrrolidin-1-yl)-N-(6-oxo-1,6-dihydropyridin-3-yl)pyrazolo[1,5-a]pyrimidine-3-carboxamide], the inhibition at 1 µM worked out at 27.4%.
Regarding `COc1ncc(F)cc1[C@H]1CCCN1c1ccn2ncc(C(=O)NC3CCN(S(C)(=O)=O)CC3)c2n1` [Example 162, (R)-5-(2-(5-fluoro-2-methoxypyridin-3-yl)pyrrolidin-1-yl)-N-(1-(methylsulfonyl)piperidin-4-yl)pyrazolo[1,5-a]pyrimidine-3-carboxamide], the inhibition at 1 µM was 66.2%.
Take `O=C(NCCO)c1cnn2ccc(N3CCCC3c3cc(F)ccc3F)nc12` (stereo not drawn) [Example 165, 5-(2-(2,5-difluorophenyl)pyrrolidin-1-yl)-N-(2-hydroxyethyl)pyrazolo[1,5-a]pyrimidine-3-carboxamide]: the inhibition at 1 µM is 26.8%.
`C[C@H](O)CNC(=O)c1cnn2ccc(N3CCC[C@@H]3c3cc(F)ccc3F)nc12` [Example 166, 5-((R)-2-(2,5-difluorophenyl)pyrrolidin-1-yl)-N-(2-hydroxypropyl)pyrazolo[1,5-a]pyrimidine-3-carboxamide]: the inhibition at 1 µM is 13.8%.
As to `O=C(N[C@H]1CC[C@H](O)C1)c1cnn2ccc(N3CCC[C@@H]3c3cc(F)ccc3F)nc12` [Example 169, 5-((R)-2-(2,5-difluorophenyl)pyrrolidin-1-yl)-N-((1S,3S)-3-hydroxycyclopentyl)pyrazolo[1,5-a]pyrimidine-3-carboxamide], the inhibition at 1 µM came out at 51.9%.
The result for `O=C(NCCN1CCC(O)CC1)c1cnn2ccc(N3CCC[C@@H]3c3cc(F)ccc3F)nc12` [Example 170, 5-((R)-2-(2,5-difluorophenyl)pyrrolidin-1-yl)-N-(2-(4-hydroxypiperidin-1-yl)ethyl)pyrazolo[1,5-a]pyrimidine-3-carboxamide] reads 0.7%.
`CN1CCN(CCNC(=O)c2cnn3ccc(N4CCC[C@@H]4c4cc(F)ccc4F)nc23)CC1` [Example 171, 5-((R)-2-(2,5-difluorophenyl)pyrrolidin-1-yl)-N-(2-(4-methylpiperazin-1-yl)ethyl)pyrazolo[1,5-a]pyrimidine-3-carboxamide]: the inhibition at 1 µM was 7.8%.
The same measure for `COCCNC(=O)c1cnn2ccc(N3CCC[C@@H]3c3cc(F)ccc3F)nc12` [Example 172, 5-((R)-2-(2,5-difluorophenyl)pyrrolidin-1-yl)-N-(2-methoxyethyl)pyrazolo[1,5-a]pyrimidine-3-carboxamide]: 11%; for `C[C@@H](O)[C@H](CO)NC(=O)c1cnn2ccc(N3CCC[C@@H]3c3cc(F)ccc3F)nc12` [Example 174, 5-((R)-2-(2,5-difluorophenyl)pyrrolidin-1-yl)-N-((2S,3R)-1,3-dihydroxybutan-2-yl)pyrazolo[1,5-a]pyrimidine-3-carboxamide]: 6.4%.
Regarding `C[C@H](O)[C@H](CO)NC(=O)c1cnn2ccc(N3CCC[C@@H]3c3cc(F)ccc3F)nc12` [Example 175, 5-((R)-2-(2,5-difluorophenyl)pyrrolidin-1-yl)-N-((2S,3S)-1,3-dihydroxybutan-2-yl)pyrazolo[1,5-a]pyrimidine-3-carboxamide], the inhibition at 1 µM stood at 3.8%.
`C[C@H](O)[C@@H](CO)NC(=O)c1cnn2ccc(N3CCC[C@@H]3c3cc(F)ccc3F)nc12` [Example 176, 5-((R)-2-(2,5-difluorophenyl)pyrrolidin-1-yl)-N-((2R,3S)-1,3-dihydroxybutan-2-yl)pyrazolo[1,5-a]pyrimidine-3-carboxamide]: the inhibition at 1 µM was 6.3%.
`C[C@@H](CO)NC(=O)c1cnn2ccc(N3CCC[C@@H]3c3cc(F)ccc3F)nc12` [Example 177, 5-((R)-2-(2,5-difluorophenyl)pyrrolidin-1-yl)-N-((S)-1-hydroxypropan-2-yl)pyrazolo[1,5-a]pyrimidine-3-carboxamide]: the inhibition at 1 µM worked out at 26.2%.
As to `CC[C@@H](CO)NC(=O)c1cnn2ccc(N3CCC[C@@H]3c3cc(F)ccc3F)nc12` [Example 178, 5-((R)-2-(2,5-difluorophenyl)pyrrolidin-1-yl)-N-((S)-1-hydroxybutan-2-yl)pyrazolo[1,5-a]pyrimidine-3-carboxamide], the inhibition at 1 µM was determined as 16.9%.
Take `CC(C)[C@@H](CO)NC(=O)c1cnn2ccc(N3CCC[C@@H]3c3cc(F)ccc3F)nc12` [Example 179, 5-((R)-2-(2,5-difluorophenyl)pyrrolidin-1-yl)-N-((S)-1-hydroxy-3-methylbutan-2-yl)pyrazolo[1,5-a]pyrimidine-3-carboxamide]: the inhibition at 1 µM was -0.2%.
Regarding `CC(C)(C)[C@@H](CO)NC(=O)c1cnn2ccc(N3CCC[C@@H]3c3cc(F)ccc3F)nc12` [Example 180, 5-((R)-2-(2,5-difluorophenyl)pyrrolidin-1-yl)-N-((S)-1-hydroxy-3,3-dimethylbutan-2-yl)pyrazolo[1,5-a]pyrimidine-3-carboxamide], the inhibition at 1 µM is -0.8%.
Turning to `Cc1ncc(F)cc1[C@H]1CCCN1c1ccn2ncc(C(=O)NC(C)(C)C)c2n1` [Example 183, (R)-N-tert-butyl-5-(2-(5-fluoro-2-methylpyridin-3-yl)pyrrolidin-1-yl)pyrazolo[1,5-a]pyrimidine-3-carboxamide], the inhibition at 1 µM is -0.8%.
The same measure for `Cc1ncc(F)cc1[C@H]1CCCN1c1ccn2ncc(C(=O)NC(C)C)c2n1` [Example 184, (R)-5-(2-(5-fluoro-2-methylpyridin-3-yl)pyrrolidin-1-yl)-N-isopropylpyrazolo[1,5-a]pyrimidine-3-carboxamide]: 11.8%.
On to `CNC(=O)c1cnn2ccc(N3CCC[C@@H]3c3cc(F)cnc3C)nc12` [Example 186, (R)-5-(2-(5-fluoro-2-methylpyridin-3-yl)pyrrolidin-1-yl)-N-methylpyrazolo[1,5-a]pyrimidine-3-carboxamide], for which the inhibition at 1 µM was 10.5%.
The same measure for `Cc1ncc(F)cc1[C@H]1CCCN1c1ccn2ncc(C(=O)NCCO)c2n1` [Example 188, (R)-5-(2-(5-fluoro-2-methylpyridin-3-yl)pyrrolidin-1-yl)-N-(2-hydroxyethyl)pyrazolo[1,5-a]pyrimidine-3-carboxamide]: 9.3%; for `Cc1ncc(F)cc1[C@H]1CCCN1c1ccn2ncc(C(=O)NC[C@@H](C)O)c2n1` [Example 189, (R)-5-(2-(5-fluoro-2-methylpyridin-3-yl)pyrrolidin-1-yl)-N-((R)-2-hydroxypropyl)pyrazolo[1,5-a]pyrimidine-3-carboxamide]: 4.6%.
For the compound `COCCNC(=O)c1cnn2ccc(N3CCC[C@@H]3c3cc(F)cnc3C)nc12` [Example 191, (R)-5-(2-(5-fluoro-2-methylpyridin-3-yl)pyrrolidin-1-yl)-N-(2-methoxyethyl)pyrazolo[1,5-a]pyrimidine-3-carboxamide], the inhibition at 1 µM worked out at 4.8%.
The result for `Cc1ncc(F)cc1[C@H]1CCCN1c1ccn2ncc(C(=O)N3CC(O)C3)c2n1` [Example 192, (R)-(5-(2-(5-fluoro-2-methylpyridin-3-yl)pyrrolidin-1-yl)pyrazolo[1,5-a]pyrimidin-3-yl)(3-hydroxyazetidin-1-yl)methanone] reads 0.3%.
For `Cc1ncc(F)cc1[C@H]1CCCN1c1ccn2ncc(C(=O)NC3(CO)CC3)c2n1` [Example 193, (R)-5-(2-(5-fluoro-2-methylpyridin-3-yl)pyrrolidin-1-yl)-N-(1-(hydroxymethyl)cyclopropyl)-pyrazolo[1,5-a]pyrimidine-3-carboxamide], the inhibition at 1 µM stood at 8.4%.
Take `Cc1ncc(F)cc1[C@H]1CCCN1c1ccn2ncc(C(=O)N[C@H]3CC[C@H](O)C3)c2n1` [Example 196, 5-((R)-2-(5-fluoro-2-methylpyridin-3-yl)pyrrolidin-1-yl)-N-((1S,3S)-3-hydroxycyclopentyl)pyrazolo[1,5-a]pyrimidine-3-carboxamide]: the inhibition at 1 µM came out at 10.6%.
On to `Cc1ncc(F)cc1[C@H]1CCCN1c1ccn2ncc(C(=O)N[C@@H]3CCC[C@H]3O)c2n1` [Example 197, 5-((R)-2-(5-fluoro-2-methylpyridin-3-yl)pyrrolidin-1-yl)-N-((1R,2R)-2-hydroxycyclopentyl)pyrazolo[1,5-a]pyrimidine-3-carboxamide], for which the inhibition at 1 µM was 3.6%.
Take `Cc1ncc(F)cc1[C@H]1CCCN1c1ccn2ncc(C(=O)N[C@H]3CN4CCC3CC4)c2n1` [Example 198, 5-((R)-2-(5-fluoro-2-methylpyridin-3-yl)pyrrolidin-1-yl)-N-((R)-quinuclidin-3-yl)pyrazolo[1,5-a]pyrimidine-3-carboxamide]: the inhibition at 1 µM is 1.6%.
As for `CCc1ncc(F)cc1[C@H]1CCCN1c1ccn2ncc(C(=O)N[C@H]3CC[C@H](O)CC3)c2n1` [Example 199, 5-((R)-2-(2-ethyl-5-fluoropyridin-3-yl)pyrrolidin-1-yl)-N-((trans)-4-hydroxycyclohexyl)pyrazolo[1,5-a]pyrimidine-3-carboxamide], the inhibition at 1 µM was found to be 38.8%.
Consider `CC(C)(C)NC(=O)c1cnn2ccc(N3CCC[C@@H]3c3cc(F)c[nH]c3=O)nc12` [Example 202, (R)—N-tert-butyl-5-(2-(5-fluoro-2-oxo-1,2-dihydropyridin-3-yl)pyrrolidin-1-yl)pyrazolo[1,5-a]pyrimidine-3-carboxamide], for which the inhibition at 1 µM was 11.5%.
